Results from the NIST ThermoML archive (doi:10.1021/je400238j).
Numbers after ± are expanded uncertainties.

Details: Liquid, Ebulliometric method (Recirculating still)

| vapor or sublimation pressure (323.46 K) [kPa] | vapor or sublimation pressure (338.72 K) [kPa] | vapor or sublimation pressure (348.56 K) [kPa] | vapor or sublimation pressure (351.51 K) [kPa] | vapor or sublimation pressure (359.76 K) [kPa] | vapor or sublimation pressure (360.06 K) [kPa] | vapor or sublimation pressure (380.43 K) [kPa] | vapor or sublimation pressure (380.94 K) [kPa] | vapor or sublimation pressure (394.09 K) [kPa] | vapor or sublimation pressure (394.6 K) [kPa] | vapor or sublimation pressure (398.49 K) [kPa] | vapor or sublimation pressure (398.74 K) [kPa] | SMILES |
| --- | --- | --- | --- | --- | --- | --- | --- | --- | --- | --- | --- | --- |
| 30 ± 1.3 | 60 ± 1.5 | 90 ± 1.8 | 101.3 ± 2 | – | – | – | – | – | – | – | – | CCO [ethanol] |
| – | – | – | – | 30 ± 1.3 | 30 ± 2.5 | 60 ± 1.5 | 60 ± 4.7 | 90 ± 1.9 | 90 ± 7 | 101.3 ± 2 | 101.3 ± 7.9 | CCCCCCCC [octane] |
